From EP0063525A1, “Dibenzazepine tetracyclic derivatives, process for their preparation and pharmaceutical compositions containing them” (CENTRE NATIONAL DE LA RECHERCHE SCIENTIFIQUE (CNRS), priority 1981, dated 1982) come the findings set out here.

Data set [1] is described as follows: acute toxicity in the mouse, intraperitoneal. The conditions noted are these: mouse, in vivo, ip, voie intrapéritonéale; for LD50 at 48 h: souris femelles, read-out: DL 50; for mortality at 48 h: read-out: Mortalité %. It is filed as in vivo, Souris. An excerpt:
(§1) Les produits ont été administrés par voie intrapéritonéale à des souris femelles dont le poids variait de 18 à 30 g.
(§2) Les animaux injectés ont été maintenus dans une salle thermostatée, nourris et abreuvés à volonté.
(§3) La mortalité a été relevée à 1 heure, 4 heures, 24 heures et 48 heures.

For another data set, the system named is souris femelles. The experiment in a line: acute toxicity in the mouse, intraperitoneal. In kind it is in vivo. Particulars: voie intrapéritonéale; for Mortalité en 1 heure / Mortalité en 48 h. / Mortalité en 48 heures: dead mice of the group.
Text: as §1, §2, §3

The test system of a further data set is Souris. The experiment in a line: antireserpine activity: reserpine hypothermia. It is filed as in vivo. Particulars: réserpine 5 mg/kg i.p. 17 h before. The procedure: On note ensuite les températures témoins (réserpine), puis les températures 1, 2, 3 et 4 heures après l'administration des produits étudiés.
Les animaux sont répartis en lots de 4 animaux et reçoivent par voie intrapéritonéale la réserpine à une dose de 5 mg/kg. 17 heures après cette injection, on mesure la température corporelle de l'animal à l'aide d'une sonde thermocouple introduite dans le rectum; chaque lot reçoit ensuite la substance par voie intrapéritonéale. Le lot témoin reçoit la même quantité de solvant et par la même voie. La température corporelle est ensuite mesurée toutes les heures pendant 4 heures.
Les résultats sont rassemblés dans un tableau récapitulatif-où sont indiqués : • - la température moyenne pour chaque lot relevée 17 heures après l'injection de la réserpine, • - la moyenne des variations de température pour chaque lot relevées 1,2, 3 et 4 heures après l'injection de la substance étudiée, • - la somme des variations de températures pendant 4 heures, • - le pourcentage d'augmentation de la température pour chaque produit par rapport aux témoins.

Read-outs that look alike come from different tables or passages of the source.

As for `c1ccc(C2=NOC3c4ccccc4Nc4ccccc4C23)cc1` (stereo not shown) [compound 1, phényl-3 trihydro-3a,8,12b (dibenzo [b,f]isoxazolo [4,5-d])azépine], the LD50 at 48 h in data set [1] is above 100 mg/kg. Further, the mortality at 48 h in data set [1] (50 mg/kg) is 0%. Also, the mortality at 48 h in data set [1] (100 mg/kg) is 0%. Further, in the data set with souris femelles (50 mg/kg), the “Mortalité en 1 heure” value was found to be 0 and the “Mortalité en 48 h.” value amounted to 0. In addition, in the data set on souris femelles (100 mg/kg), the “Mortalité en 1 heure” value was 0 and the “Mortalité en 48 h.” value worked out at 0. The change in vivo at 15 mg/kg in the data set on Souris (ip, 4 h, product i.p. 15 mg/kg, read-out: % d'augmentation par rapport aux témoins) came out at 45%. In addition, in the data set on Souris (product i.p. 15 mg/kg), the “variation de température T= 2h” value was “+0,5”, the “variation de température T=3h” value is “+0,4” and the “variation de température T=4h” value was “+0,7”.

As to `CC(CN(C)C)CN1c2ccccc2C2ON=C(c3ccccc3)C2c2ccccc21` (stereo not shown) [compound 4, (méthyl-2 diméthylamino-3 propyl)-8 phényl-3 trihydro-3a, 8, 12b (dibenzo[b,f]-isoxazolo [4,5-d]) azépine], the LD50 at 48 h in data set [1] is 175 mg/kg. Moreover, the mortality at 48 h turned out to be 0% in data set [1] (100 mg/kg) and 100% in data set [1] (300 mg/kg). Further, the “Mortalité en 1 heure” value in the data set on souris femelles (100 mg/kg) is listed as 0; in the data set with souris femelles (300 mg/kg) it was 4. Moreover, the “Mortalité en 48 h.” value in the data set on souris femelles (100 mg/kg) was found to be 0; with souris femelles (300 mg/kg) it was 4.

For the compound `OCCN1CCN(CCCN2c3ccccc3C3ON=C(c4ccccc4)C3c3ccccc32)CC1` (stereo not shown) [compound 5], the LD50 at 48 h in data set [1] was determined as 125 mg/kg. The mortality at 48 h in data set [1] (75 mg/kg) is 20%; in data set [1] (125 mg/kg), 40%; in data set [1] (200 mg/kg), 100%; in data set [1] (250 mg/kg), 100%. Also, the “Mortalité en 1 heure” value in the data set on souris femelles (75 mg/kg) is listed as 1; in the data set on souris femelles (125 mg/kg), 2; in the data set on souris femelles (200 mg/kg) it was 5; with souris femelles (250 mg/kg) it was 5. The “Mortalité en 48 h.” value with souris femelles (75 mg/kg) is 1; with souris femelles (125 mg/kg) it was 2; in the data set with souris femelles (200 mg/kg), 5; in the data set with souris femelles (250 mg/kg), 5.

As to `c1ccc(C2=NN(c3ccccc3)C3c4ccccc4Nc4ccccc4C23)cc1` (stereo not shown) [compound 6, diphényl-1,3 tétrahydro-1,3a,8,12b(dibenzo [b,d]pyrazolo[3,4-d])hazépine], in data set [1], the LD50 at 48 h is above 750 mg/kg. Also, the mortality at 48 h in data set [1] (500 mg/kg) came to 0%. Moreover, the mortality at 48 h in data set [1] (750 mg/kg) was found to be 0%. Also, in the data set with souris femelles (500 mg/kg), the “Mortalité en 1 heure” value was 0 and the “Mortalité en 48 h.” value was determined as 0. Moreover, in the data set with souris femelles (750 mg/kg), the “Mortalité en 1 heure” value is 0 and the “Mortalité en 48 h.” value was 0. In addition, in the data set on Souris (ip, 4 h, product i.p. 150 mg/kg, read-out: % d'augmentation par rapport aux témoins), the change in vivo at 150 mg/kg was found to be 80%. For the same compound, in the data set with Souris (product i.p. 150 mg/kg), the “variation de température T= 2h” value is reported as “+0,7”, the “variation de température T=3h” value was “+0,6” and the “variation de température T=4h” value was “+0,4”.

Regarding `CN(C)CCCN1c2ccccc2C2C(c3ccccc3)=NN(c3ccccc3)C2c2ccccc21` (stereo not shown) [compound 8, (y-diméthylaminopropyl)-8 diphênyl-1,3 tétrahydro-1,3a,8, 12b(dibenzo [b,f]pyrazolo [3,4-d])azépine], in data set [1], the LD50 at 48 h is above 250 mg/kg. Moreover, the mortality at 48 h was determined as 0% in data set [1] (5 mg/kg); 0% in data set [1] (50 mg/kg); 0% in data set [1] (100 mg/kg); 20% in data set [1] (150 mg/kg); 0% in data set [1] (250 mg/kg). In addition, the “Mortalité en 1 heure” value is 0 in the data set on souris femelles (5 mg/kg); 0 in the data set with souris femelles (50 mg/kg); 0 in the data set with souris femelles (100 mg/kg); 1 with souris femelles (150 mg/kg); 0 in the data set on souris femelles (250 mg/kg). Moreover, the “Mortalité en 48 h.” value with souris femelles (5 mg/kg) is recorded as 0; in the data set on souris femelles (50 mg/kg), 0; in the data set on souris femelles (100 mg/kg) it was 0; in the data set on souris femelles (150 mg/kg), 1; in the data set on souris femelles (250 mg/kg), 0.

For the compound `CC(CN(C)C)CN1c2ccccc2C2C(c3ccccc3)=NN(c3ccccc3)C2c2ccccc21` (stereo not shown) [compound 9, (méthyl-2 diméthylamino-3 propyl)-8 diphényl-1,3 tétrahydro-1,3a, 8, 12b (dibenzo [b, f]pyrazolo [3,4-d])azépine], in data set [1], the LD50 at 48 h was above 300 mg/kg. In data set [1] (150 mg/kg), the mortality at 48 h was 0%. Further, the mortality at 48 h in data set [1] (300 mg/kg) turned out to be 0%. Moreover, in the data set with souris femelles (150 mg/kg), the “Mortalité en 1 heure” value was determined as 0 and the “Mortalité en 48 h.” value is given as 0. Besides, in the data set with souris femelles (300 mg/kg), the “Mortalité en 1 heure” value stood at 0 and the “Mortalité en 48 h.” value amounted to 0. In addition, the change in vivo at 50 mg/kg with Souris (ip, 4 h, product i.p. 50 mg/kg, read-out: % d'augmentation par rapport aux témoins) is 60%. Moreover, in the data set with Souris (product i.p. 50 mg/kg), the “variation de température T= 2h” value is listed as “+0,8”, the “variation de température T=3h” value was “+0,6” and the “variation de température T=4h” value is on record as “+0,1”.

`CC(CN(C)C)CN1c2ccccc2-c2c(-c3ccccc3)nn(-c3ccccc3)c2-c2ccccc21` (stereo not shown) [compound 15, (méthyl-2 diméthylamino-3 propyl)-8 diphényl 1,3 dihydro-1,8(dibenzo [b,f]pyrazolo [3 ,4-d]) azépine]: the LD50 at 48 h in data set [1] was 175 mg/kg. The mortality at 48 h was 0% in data set [1] (50 mg/kg), 0% in data set [1] (100 mg/kg), 80% in data set [1] (250 mg/kg) and 80% in data set [1] (300 mg/kg). Moreover, the “Mortalité en 1 heure” value in the data set with souris femelles (50 mg/kg) was 0; in the data set on souris femelles (100 mg/kg), 0; in the data set on souris femelles (250 mg/kg) it was 2; with souris femelles (300 mg/kg) it was 0. For the same compound, the “Mortalité en 48 h.” value in the data set on souris femelles (50 mg/kg) is 0; in the data set on souris femelles (100 mg/kg), 0; in the data set with souris femelles (250 mg/kg), 4; in the data set on souris femelles (300 mg/kg), 4.

Turning to `c1ccc(-c2noc3c2-c2ccccc2Nc2ccccc2-3)cc1` [compound 16, phényl-3 (dibenzo [b,f]isoxazolo [4,5-d]) 8H azépine], the LD50 at 48 h in data set [1] was above 1000 mg/kg. The mortality at 48 h in data set [1] (50 mg/kg) is 0%; in data set [1] (100 mg/kg), 0%; in data set [1] (250 mg/kg), 20%; in data set [1] (500 mg/kg), 0%; in data set [1] (1000 mg/kg) it was 0%. In addition, the “Mortalité en 1 heure” value with souris femelles (50 mg/kg), in the data set with souris femelles (100 mg/kg), in the data set with souris femelles (250 mg/kg), in the data set on souris femelles (500 mg/kg) and in the data set with souris femelles (1000 mg/kg) was 0 in each case. Moreover, the “Mortalité en 48 h.” value with souris femelles (50 mg/kg) worked out at 0; with souris femelles (100 mg/kg), 0; in the data set with souris femelles (250 mg/kg), 1; in the data set with souris femelles (500 mg/kg), 0. Further, the “Mortalité en 48 heures” value with souris femelles (1000 mg/kg) is 0.

In the case of “(γ-diméthylaminopropyl)-8 phényl-1 (chloro-4' phényl)-3 tétrahydro-1,3a, 8,12b(dibenzo[b,f]pyrazolo [3,4-d])azépine [compound 11]”, the “DL 50” value with souris femelles (souris femelles, 2880 min) is above 1000 mg/kg. In the data set with souris femelles (250 mg/kg, 2880 min), this compound displayed a Mortalité % of 0%. Besides, in the data set on souris femelles (250 mg/kg), the “Mortalité en 1 heure” value stood at 0 and the “Mortalité en 48 h.” value worked out at 0. For the same compound, the Mortalité % with souris femelles (450 mg/kg, 2880 min) was found to be 0%. In the data set with souris femelles (450 mg/kg), the “Mortalité en 1 heure” value worked out at 0 and the “Mortalité en 48 heures” value turned out to be 0. Further, the Mortalité % with souris femelles (1000 mg/kg, 2880 min) came to 0%. Also, in the data set on souris femelles (1000 mg/kg), the “Mortalité en 1 heure” value stood at 0 and the “Mortalité en 48 heures” value was found to be 0. Further, in the data set with Souris (product i.p. 150 mg/kg), the “% d'augmentation par rapport aux témoins” value is 85%, the “variation de température T= 2h” value was “+0,4”, the “variation de température T=3h” value is “+0,5” and the “variation de température T=4h” value is “+0,7”.
